Counter-ions that a name gives are not always drawn.
Each compound was assayed on anesthetized rat (assay: Anesthetized rat spirometry screening assay). Conditions: 2 minute AUC of minute volume increase vs. comparator N-[2,6-di-(n-propylamino)-[1,3]pyrimidin-4-yl]-N,O-dimethyl-hydroxylamine.
Format: in vivo
Excerpt: Effect of Compounds of the Invention on Respiratory Rate (RR), Tidal Volume (VT), and the Product Minute Volume Using an Anesthetized Rat Spirometry Screening Assay
Anesthetized rats provide a quick method of screening compounds for respiratory and cardiovascular activity. In contrast to the conscious rat model, this model offers an experimental set up with less variation in the baseline cardiovascular and respiratory measures. Compounds screened in this assay may be examined in a conscious rat model.
Rats were initially anesthetized with 3% isoflurane (inhaled) and femoral artery and vein cannulas were surgically inserted. Once cannulated, the rats were transitioned to urethane anesthesia (1.5 g/kg; i.v.) and a tracheal cut-down was performed. After placing the tracheal cannula, it was connected to a pneumotachometer to record respiratory airflow from which respiratory rate (RR), tidal volume (VT), and their product minute volume were derived. After the surgical preparation was complete, animals were allowed to stabilize for 30 minutes while respiratory rate, tidal volume, minute volume, blood pressure and heart rate were recorded continuously. Arterial blood gases (ABG) were obtained from arterial blood collected from the femoral artery. ABG measurements were taken before and 6 minutes after vehicle and each dose of compound administered. Compounds being screened were administered via bolus injections through the venous cannula followed by a saline flush (total time of administration is approximately 30 seconds), and the animal was monitored for at least 6 minutes for changes in cardiovascular efforts. Compounds were prepared in formulations identified to ensure optimal solubility. As such, vehicle controls were matched for the formulation of each compound tested. Dosing of the compound being screened was 0.1 and 0.3 mg/kg. The next dose was not administered until all cardiovascular and respiratory measures had returned to baseline levels. The positive control compounds used were N-[4,6-di-(n-propylamino)-[1,3,5]triazin-2-yl]-N,O-dimethyl-hydroxylamine or N-[2,6-di-(n-propylamino)-[1,3]pyrimidin-4-yl]-N,O-dimethyl-hydroxylamine (both administered at the end of each screening experiment (0.3 mg/kg dose) to validate the experiment and also to serve as a measure with which the compound being screened could be compared.
Data were analyzed by collecting cardiovascular and respiratory data in 30 second averages (BINs). Data were plotted 2 minutes before challenge and then 6 minutes after challenge.

Row | Compound | AUC MV Inc (2 min) (ratio vs. std*)
1 | C=CCN(CC=C)c1nc(NC)c2nc(NCCC)nc(NC)c2n1 [Compound 58a, N^2,N^2-Diallyl-N^4,N^8-dimethyl-N^6-n-propyl-pyrimido[5,4-d]pyrimidine-2,4,6,8-tetraamine] | 0.18 ratio vs. std
2 | CCCNc1nc(NC)c2nc(SCCC)nc(NC)c2n1 [Compound 97a, N^4,N^8-Dimethyl-N^2-n-propyl-6-propylsulfanyl-pyrimido[5,4-d]pyrimidine-2,4,8-triamine] | 0.26 ratio vs. std
3 | CCCN=C(N)c1nc(NC)c2nc(NCCC)nc(NC)c2n1 [Compound 110a, N-(n-Propyl)-[4,8-Bis-methylamino-6-n-propylamino-pyrimido[5,4-d]pyrimidin-2-yl]-amidine] | 0.00 ratio vs. std
4 | CCCNc1nc(NC)c2nc(NCCOC(C)C)nc(NC)c2n1 [Compound 62a, N^2-(2-Isopropoxy-ethyl)-N^4,N^8-dimethyl-N^6-n-propyl-pyrimido[5,4-d]pyrimidine-2,4,6,8-tetraamine] | 0.55 ratio vs. std
5 | CNc1nc(NCC(C)C)nc2c(NC)nc(NCC(C)C)nc12.Cl [Compound 87a, N^2,N^6-Diisobutyl-N^4,N^8-dimethyl-pyrimido[5,4-d]pyrimidine-2,4,6,8-tetraamine hydrochloride] | 0.18 ratio vs. std
6 | CCNc1nc(NCC2CC2)nc2c(NCC)nc(NCC3CC3)nc12 [Compound 129a, N^2,N^6-Bis-cyclopropylmethyl-N^4,N^8-diethyl-pyrimido[5,4-d]pyrimidine-2,4,6,8-tetraamine] | 0.25 ratio vs. std
7 | CCCNc1nc(NC)c2ncnc(NC)c2n1 [Compound 116a, N^4,N^8-Dimethyl-N^2-n-propyl-pyrimido[5,4-d]pyrimidine-2,4,8-triamine] | 0.00 ratio vs. std
8 | CCCNc1nc(N(C)C)nc2c(NCCC)nc(N(C)C)nc12 [Compound 142a, N^2,N^2,N^6,N^6-Tetramethyl-N^4,N^8-di-n-propyl-pyrimido[5,4-d]pyrimidine-2,4,6,8-tetraamine] | 0.05 ratio vs. std
9 | C=CCNc1nc(NC)c2nc(NCC=C)nc(NC)c2n1.Cl [Compound 89a, N^2,N^6-Diallyl-N^4,N^8-dimethyl-pyrimido[5,4-d]pyrimidine-2,4,6,8-tetraamine hydrochloride] | 0.92 ratio vs. std
10 | CCNc1nc(NCC)c2nc(NCC)nc(NCC)c2n1.Cl [Compound 125a, N^2,N^4,N^6,N^8-Tetraethyl-pyrimido[5,4-d]pyrimidine-2,4,6,8-tetraamine hydrochloride] | 0.80 ratio vs. std
11 | CCCNc1nc(NC)c2nc(N(CCO)CCO)nc(NC)c2n1.Cl [Compound 66a, 2-[(4,8-Bis-methylamino-6-n-propylamino-pyrimido[5,4-d]pyrimidin-2-yl)-(2-hydroxy-ethyl)-amino]-ethanol hydrochloride] | 0.14 ratio vs. std
12 | CCCNc1nc(NC)c2nc(OCc3ccccc3)nc(NC)c2n1 [Compound 99a, 6-Benzyloxy-N^4,N^8-Dimethyl-N^2-n-propyl-pyrimido[5,4-d]pyrimidine-2,4,8-triamine] | 0.19 ratio vs. std
13 | CCCN(C)c1nc(N)c2nc(N(C)C)nc(NC)c2n1.Cl [Compound 56a, N^2,N^2,N^4,N^6-Tetramethyl-N^6-n-propyl-pyrimido[5,4-d]pyrimidine-2,4,6,8-tetraamine hydrochloride] | 0.79 ratio vs. std
14 | C=CCNc1nc(NCC=C)c2nc(N3CCN(C(c4ccc(F)cc4)c4ccc(F)cc4)CC3)nc(NCC=C)c2n1 [Compound 150a, N^2,N^4,N^8-Triallyl-6-{4-[bis-(4-fluorophenyl)-methyl]-piperazin-1-yl}-pyrimido[5,4-d]pyrimidine-2,4,8-triamine] | 0.00 ratio vs. std
15 | CCCNc1nc(NC)c2nc(C(N)=O)nc(NC)c2n1 [Compound 107a, 6-Carbamoyl-N^4,N^8-dimethyl-N^2-n-propyl-pyrimido[5,4-d]pyrimidine-2,4,8-triamine] | 0.00 ratio vs. std
16 | CCCNc1nc(NC)c2nc(N(CCOC)CCOC)nc(NC)c2n1 [Compound 68a, N^2,N^2-Bis-(2-methoxyethyl)-N^4,N^8-dimethyl-N^6-n-propyl-pyrimido[5,4-d]pyrimidine-2,4,6,8-tetraamine] | 0.00 ratio vs. std
17 | CCNc1nc(NCC2CC2)c2nc(N(CC)CC)nc(NCC3CC3)c2n1.Cl [Compound 135a, N^2,N^2,N^6-Triethyl-N^4,N^8-bis-cyclopropylmethyl-pyrimido[5,4-d]pyrimidine-2,4,6,8-tetraamine hydrochloride] | 0.00 ratio vs. std
18 | CCCNc1nc(NC)nc2c(NCCC)nc(C#N)nc12 [Compound 122a, 6-Methylamino-4,8-bis-n-propylamino-pyrimido[5,4-d]pyrimidine-2-carbonitrile] | 0.00 ratio vs. std
19 | CCCNc1nc(NC)c2nc(CN)nc(NC)c2n1 [Compound 105a, N^4,N^8-Dimethyl-N^2-n-propyl-6-(aminomethyl)-pyrimido[5,4-d]pyrimidine-2,4,8-triamine] | 0.00 ratio vs. std
20 | CCCNc1nc(NC)c2nc(OCCC)nc(NC)c2n1 [Compound 95a, N^4,N^8-Dimethyl-6-propoxy-N^2-n-propyl-pyrimido[5,4-d]pyrimidine-2,4,8-triamine] | 0.36 ratio vs. std
21 | C=CCNc1nc(NCC=C)c2nc(N3CCN(Cc4ccc(F)cc4)CC3)nc(NCC=C)c2n1.Cl.Cl [Compound 148a, N^2,N^4,N^8-Triallyl-6-[4-(4-fluorobenzyl)-piperazin-1-yl]-pyrimido[5,4-d]pyrimidine-2,4,8-triamine dihydrochloride] | 0.00 ratio vs. std
22 | CCCNc1nc(NC)c2nc(NCC(=O)O)nc(NC)c2n1 [Compound 154, (4,8-bis-methylamino-6-n-propylamino-pyrimido[5,4-d]pyrimidin-2-ylamino)-acetic acid] | 0.00 ratio vs. std
23 | CCCNc1nc(NC)c2nc(N3CCS(=O)(=O)CC3)nc(NC)c2n1.Cl [Compound 75a, N^2-6-n-Propylamino-N^4,N^8-dimethyl-2-(1,1-dioxo-thiomorpholin-4-yl)-pyrimido-[5,4-d]pyrimidine-2,4,8-triamine hydrochloride] | 0.02 ratio vs. std
24 | CCCNC(=O)CNc1nc(NC)c2nc(NCCC)nc(NC)c2n1.Cl [Compound 157a, N-n-Propyl-[2-(4,8-bis-methylamino-6-propylamino-pyrimido[5,4-d]pyrimidin-2-ylamino)]-acetamide hydrochloride] | 0.04 ratio vs. std
25 | CCCNc1nc(NC)c2nc(O)nc(NC)c2n1 [Compound 101, 4,8-Bis-methylamino-6-propylamino-pyrimido[5,4-d]pyrimidin-2-ol] | 0.00 ratio vs. std
26 | CCCNc1nc(NC)c2nc(C#N)nc(NC)c2n1 [Compound 103a, 4,8-Bis-methylamino-6-n-propylamino-pyrimido[5,4-d]pyrimidine-2-carbonitrile] | 0.00 ratio vs. std
27 | CCCNc1nc(NCC)c2nc(NCCC)nc(NCC)c2n1 [Compound 127a, N^4,N^8-Diethyl-N^2,N^6-di-n-propyl-pyrimido[5,4-d]pyrimidine-2,4,6,8-tetraamine] | 0.86 ratio vs. std
28 | CCCNc1nc(NC)c2nc(N3CCC(F)(F)CC3)nc(NC)c2n1 [Compound 77a, N^2-n-Propyl-N^4,N^8-dimethyl-6-(4,4-difluoro-piperidin-1-yl)-pyrimido[5,4-d]pyrimidine-2,4,8-triamine hydrochloride] | 0.55 ratio vs. std
29 | CCCNc1nc(NC)c2nc(N(C)CCN(C)C)nc(NC)c2n1 [Compound 64a, 2-[N-(2-Dimethylamino-ethyl)-N-methyl]amino-N^4,N^8-dimethyl-N^6-n-propyl-pyrimido[5,4-d]pyrimidine-4,6,8-triamine] | 0.01 ratio vs. std

Same assay, conditions: peak minute ventilation increase; urethane-anesthetized rat, i.v. bolus, screening doses 0.1 and 0.3 mg/kg

Row | Compound | VE Peak (% Inc.)
30 | CCCN=C(N)c1nc(NC)c2nc(NCCC)nc(NC)c2n1 [Compound 110a, N-(n-Propyl)-[4,8-Bis-methylamino-6-n-propylamino-pyrimido[5,4-d]pyrimidin-2-yl]-amidine] | 0 % Inc.
31 | CCCNc1nc(NC)c2nc(N3CCS(=O)(=O)CC3)nc(NC)c2n1.Cl [Compound 75a, N^2-6-n-Propylamino-N^4,N^8-dimethyl-2-(1,1-dioxo-thiomorpholin-4-yl)-pyrimido-[5,4-d]pyrimidine-2,4,8-triamine hydrochloride] | 2 % Inc.
32 | CCCNc1nc(NC)c2nc(N(C)CCN(C)C)nc(NC)c2n1 [Compound 64a, 2-[N-(2-Dimethylamino-ethyl)-N-methyl]amino-N^4,N^8-dimethyl-N^6-n-propyl-pyrimido[5,4-d]pyrimidine-4,6,8-triamine] | 9 % Inc.

Reference: patent US9643971B2 (GALLEON PHARMACEUTICALS, INC., priority 2013, dated 2017)
